Laboratory results as given in ChEMBL document CHEMBL4422678, “Design and synthesis of novel dual-cyclic RGD peptides for αvβ3 integrin targeting” (Bioorg Med Chem Lett, 2019).
Each block holds one molecule with its values, some of them ahead of it. Active and inactive are the calls of the source. The calls are words filed in the database; no cut-off is given here. *1 amine or outer side, *2 acyl side, *3 side chain or, on linkers, in order; H or OH if unused. Where a SMILES comes first, the peptide text is derived from it. [ ]: non-standard residue; d: D form. The star is where a group is joined. Dolaproine = CO[C@@H]([C@@H]1CCCN1)[C@@H](C)C(=O)O; X1 = O=C(CCCCC(=O)*)N1Cc2ccccc2C#Cc2ccccc21; Dil = CC[C@H](C)[C@H](NC)[C@@H](CC(=O)O)OC; PABC = O=C(OCc1ccc(N[*:1])cc1)[*:2]; X2 = C[C@@H](N*)[C@@H](O)c1ccccc1; NMeV = CN[C@H](C(=O)O)C(C)C

Tests used:
[1] = molecular target: T1, Integrin alpha-V/beta-3 (Homo sapiens, UniProt P05106+P06756); assay: Binding affinity to alphaVbeta3 integrin in human SKOV3 cells assessed as inhibition of cell adhesion to fibrinogen measured after 2 hrs by MTT assay; format: cell-based
Target sequence in this assay (P05106 27-788 limits assumed): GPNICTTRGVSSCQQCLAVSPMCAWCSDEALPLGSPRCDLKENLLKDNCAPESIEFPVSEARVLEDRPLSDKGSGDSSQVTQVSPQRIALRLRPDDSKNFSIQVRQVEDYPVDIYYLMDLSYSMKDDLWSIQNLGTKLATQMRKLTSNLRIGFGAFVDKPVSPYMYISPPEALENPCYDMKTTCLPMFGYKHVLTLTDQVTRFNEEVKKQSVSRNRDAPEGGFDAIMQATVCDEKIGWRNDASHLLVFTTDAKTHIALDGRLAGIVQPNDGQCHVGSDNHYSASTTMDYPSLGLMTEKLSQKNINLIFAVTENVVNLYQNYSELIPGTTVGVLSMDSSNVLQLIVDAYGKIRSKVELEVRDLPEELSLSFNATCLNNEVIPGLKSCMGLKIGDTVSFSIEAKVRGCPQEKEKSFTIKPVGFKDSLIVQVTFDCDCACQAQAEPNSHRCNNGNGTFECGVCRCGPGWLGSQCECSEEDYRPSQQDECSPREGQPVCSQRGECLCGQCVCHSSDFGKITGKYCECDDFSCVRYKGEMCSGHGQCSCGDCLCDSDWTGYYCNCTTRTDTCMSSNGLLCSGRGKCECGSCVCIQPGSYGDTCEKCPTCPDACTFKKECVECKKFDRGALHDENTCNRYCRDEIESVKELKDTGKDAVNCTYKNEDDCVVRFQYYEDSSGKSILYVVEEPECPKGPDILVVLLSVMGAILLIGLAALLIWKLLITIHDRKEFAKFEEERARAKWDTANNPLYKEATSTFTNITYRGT
Target sequence in this assay (P06756 31-889 limits assumed): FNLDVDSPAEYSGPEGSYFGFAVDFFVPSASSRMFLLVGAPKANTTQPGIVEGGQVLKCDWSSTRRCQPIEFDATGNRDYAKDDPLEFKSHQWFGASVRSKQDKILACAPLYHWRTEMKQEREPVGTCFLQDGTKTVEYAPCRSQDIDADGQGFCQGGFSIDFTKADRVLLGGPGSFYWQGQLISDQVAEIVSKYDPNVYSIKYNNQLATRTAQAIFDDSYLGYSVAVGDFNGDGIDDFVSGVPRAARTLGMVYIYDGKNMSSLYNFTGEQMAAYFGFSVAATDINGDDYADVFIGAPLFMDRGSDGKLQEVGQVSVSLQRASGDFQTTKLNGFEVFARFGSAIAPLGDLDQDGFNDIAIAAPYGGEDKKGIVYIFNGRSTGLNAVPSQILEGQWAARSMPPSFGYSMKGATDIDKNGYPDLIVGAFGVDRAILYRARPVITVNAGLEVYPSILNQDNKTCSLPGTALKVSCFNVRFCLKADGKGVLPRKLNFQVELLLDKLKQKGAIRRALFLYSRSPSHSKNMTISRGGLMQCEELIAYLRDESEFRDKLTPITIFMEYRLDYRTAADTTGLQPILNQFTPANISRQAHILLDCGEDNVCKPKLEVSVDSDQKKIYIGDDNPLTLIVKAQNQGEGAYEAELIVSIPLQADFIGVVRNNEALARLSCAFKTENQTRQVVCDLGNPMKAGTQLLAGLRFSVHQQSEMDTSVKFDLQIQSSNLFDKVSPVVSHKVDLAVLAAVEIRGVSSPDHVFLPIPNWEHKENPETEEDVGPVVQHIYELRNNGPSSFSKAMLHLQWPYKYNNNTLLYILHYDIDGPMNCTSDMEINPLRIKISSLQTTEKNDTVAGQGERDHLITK
Target sequence in this assay (P06756 891-1048 limits assumed): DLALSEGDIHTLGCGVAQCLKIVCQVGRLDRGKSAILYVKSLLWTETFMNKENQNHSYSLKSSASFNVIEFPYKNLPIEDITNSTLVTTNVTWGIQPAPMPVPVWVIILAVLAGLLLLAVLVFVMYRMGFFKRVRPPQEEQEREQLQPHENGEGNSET

[2] = tested on: SK-OV-3; assay: Cytotoxicity against human SKOV3 cells assessed as inhibition of cell growth at 400 uM after 72 hrs by CCK8 assay; format: functional; details: SK-OV-3, 72 h, read-out: GI
[3] = tested on: SK-OV-3; assay: Cytotoxicity against human SKOV3 cells assessed as inhibition of cell growth at 40 uM after 72 hrs by CCK8 assay; format: functional; details: SK-OV-3, 72 h, read-out: GI
[4] = tested on: SK-OV-3; assay: Cytotoxicity against human SKOV3 cells assessed as inhibition of cell growth at 4 uM after 72 hrs by CCK8 assay; format: functional; details: SK-OV-3, 72 h, read-out: GI
[5] = tested on: SK-OV-3; assay: Cytotoxicity against human SKOV3 cells assessed as inhibition of cell growth at 0.4 uM after 72 hrs by CCK8 assay; format: functional; details: SK-OV-3, 72 h, read-out: GI
[6] = tested on: SK-OV-3; assay: Cytotoxicity against human SKOV3 cells assessed as inhibition of cell growth at 0.04 uM after 72 hrs by CCK8 assay; format: functional; details: SK-OV-3, 72 h, read-out: GI
[7] = tested on: SK-OV-3; assay: Cytotoxicity against human SKOV3 cells assessed as inhibition of cell growth at 0.004 uM after 72 hrs by CCK8 assay; format: functional; details: SK-OV-3, 72 h, read-out: GI
[8] = tested on: SK-OV-3; assay: Cytotoxicity against human SKOV3 cells assessed as inhibition of cell growth at 0.0004 uM after 72 hrs by CCK8 assay; format: functional; details: SK-OV-3, 72 h, read-out: GI
[9] = tested on: MCF7; assay: Cytotoxicity against human MCF7 cells assessed as inhibition of cell growth at 400 uM after 72 hrs by CCK8 assay; format: functional; details: MCF7, 72 h, read-out: GI
[10] = tested on: MCF7; assay: Cytotoxicity against human MCF7 cells assessed as inhibition of cell growth at 40 uM after 72 hrs by CCK8 assay; format: functional; details: MCF7, 72 h, read-out: GI
[11] = tested on: MCF7; assay: Cytotoxicity against human MCF7 cells assessed as inhibition of cell growth at 4 uM after 72 hrs by CCK8 assay; format: functional; details: MCF7, 72 h, read-out: GI
[12] = tested on: MCF7; assay: Cytotoxicity against human MCF7 cells assessed as inhibition of cell growth at 0.4 uM after 72 hrs by CCK8 assay; format: functional; details: MCF7, 72 h, read-out: GI
[13] = tested on: MCF7; assay: Cytotoxicity against human MCF7 cells assessed as inhibition of cell growth at 0.04 uM after 72 hrs by CCK8 assay; format: functional; details: MCF7, 72 h, read-out: GI
[14] = tested on: MCF7; assay: Cytotoxicity against human MCF7 cells assessed as inhibition of cell growth at 0.004 uM after 72 hrs by CCK8 assay; format: functional; details: MCF7, 72 h, read-out: GI
[15] = tested on: MCF7; assay: Cytotoxicity against human MCF7 cells assessed as inhibition of cell growth at 0.0004 uM after 72 hrs by CCK8 assay; format: functional; details: MCF7, 72 h, read-out: GI
[16] = tested on: SK-OV-3; assay: Cytotoxicity against human SKOV3 cells assessed as inhibition of cell growth after 72 hrs by CCK8 assay; format: functional, cell-based; details: SK-OV-3, 72 h
[17] = tested on: MCF7; assay: Cytotoxicity against human MCF7 cells assessed as inhibition of cell growth after 72 hrs by CCK8 assay; format: functional, cell-based; details: MCF7, 72 h
[18] = molecular target: T1, Integrin alpha-V/beta-3; assay: Binding affinity to alphaVbeta3 integrin in human SKOV3 cells at 200 uM incubated for 3 hrs followed by compound washout prior to DBCO-Cy5 addition and measured after 1 hr by DAPI staining based fluorescence microscopic analysis; format: cell-based

Compound: [N-]=[N+]=NCCCC(=O)NCCCC[C@@H]1NC(=O)[C@H](Cc2ccccc2)NC(=O)[C@H](CC(=O)O)NC(=O)CNC(=O)[C@H](CCCN=C(N)N)NC1=O
IC50 [1]: 110 µM

Compound: CC[C@H](C)[C@@H]([C@@H](CC(=O)N1CCC[C@H]1[C@H](OC)[C@@H](C)C(=O)N[C@H](C)[C@@H](O)c1ccccc1)OC)N(C)C(=O)[C@@H](NC(=O)[C@H](C(C)C)N(C)C(=O)OCc1ccc(NC(=O)[C@H](CCCNC(=N)N)NC(=O)[C@@H](NC(=O)CCCCC(=O)N2Cc3ccccc3-c3nnn(CCCC(=O)N[C@@H](CCCNC(=N)N)C(=O)NCC(=O)N[C@@H](CC(=O)O)C(=O)N[C@@H](CCCNC(=N)N)C(=O)NCC(=O)N[C@@H](CC(=O)N[C@H]4CSSC[C@@H](C(=O)O)NC(=O)[C@H](CC(=O)O)NC(=O)CNC(=O)[C@H](CCCNC(=N)N)NC(=O)[C@H](CC(=O)O)NC(=O)CNC(=O)[C@H](CCCNC(=N)N)NC4=O)C(=O)NCCCC[C@@H]4NC(=O)[C@H](Cc5ccccc5)NC(=O)[C@H](CC(=O)O)NC(=O)CNC(=O)[C@H](CCCN=C(N)N)NC4=O)c3-c3ccccc32)C(C)C)cc1)C(C)C
IC50 [16]: 0.44 µM
IC50 [17]: 19.9 µM

Compound: CC[C@H](C)[C@@H]([C@@H](CC(=O)N1CCC[C@H]1[C@H](OC)[C@@H](C)C(=O)N[C@H](C)[C@@H](O)c1ccccc1)OC)N(C)C(=O)[C@@H](NC(=O)[C@H](C(C)C)N(C)C(=O)OCc1ccc(NC(=O)[C@H](CCCNC(=N)N)NC(=O)[C@@H](NC(=O)CCCCC(=O)N2Cc3ccccc3C#Cc3ccccc32)C(C)C)cc1)C(C)C (X1-VR[PABC][NMeV]V[Dil][Dolaproine]-X2)
IC50 [16]: 1 µM
IC50 [17]: 22.3 µM

Compound: CC[C@H](C)[C@@H]([C@@H](CC(=O)N1CCC[C@H]1[C@H](OC)[C@@H](C)C(=O)N[C@H](C)[C@@H](O)c1ccccc1)OC)N(C)C(=O)[C@@H](NC(=O)[C@H](C(C)C)N(C)C(=O)OCc1ccc(NC(=O)[C@H](CCCNC(=N)N)NC(=O)[C@@H](NC(=O)CCCCC(=O)N2Cc3ccccc3-c3nnn(CCCC(=O)NCCCC[C@@H]4NC(=O)[C@H](Cc5ccccc5)NC(=O)[C@H](CC(=O)O)NC(=O)CNC(=O)[C@H](CCCN=C(N)N)NC4=O)c3-c3ccccc32)C(C)C)cc1)C(C)C
IC50 [16]: 4.5 µM
IC50 [17]: 93.2 µM

Second part, led by results:

IC50 [1]: 24.5 µM
Compound: [N-]=[N+]=NCCCC(=O)N[C@@H](CCCNC(=N)N)C(=O)NCC(=O)N[C@@H](CC(=O)N[C@H]1CSSC[C@@H](C(=O)O)NC(=O)[C@H](CC(=O)O)NC(=O)CNC(=O)[C@H](CCCNC(=N)N)NC(=O)[C@H](CC(=O)O)NC(=O)CNC(=O)[C@H](CCCNC(=N)N)NC1=O)C(=O)N[C@@H](CCCNC(=N)N)C(=O)NCC(=O)N[C@@H](CC(=O)O)C(=O)N[C@@H](CCCNC(=N)N)C(=O)NCC(=O)N[C@@H](CC(=O)O)C(=O)NCCCC[C@@H]1NC(=O)[C@H](Cc2ccccc2)NC(=O)[C@H](CC(=O)O)NC(=O)CNC(=O)[C@H](CCCN=C(N)N)NC1=O

IC50 [1]: 2.13 µM
Compound: [N-]=[N+]=NCCCC(=O)N[C@@H](CCCNC(=N)N)C(=O)NCC(=O)N[C@@H](CC(=O)N[C@H]1CSSC[C@@H](C(=O)O)NC(=O)[C@H](CC(=O)O)NC(=O)CNC(=O)[C@H](CCCNC(=N)N)NC(=O)[C@H](CC(=O)O)NC(=O)CNC(=O)[C@H](CCCNC(=N)N)NC1=O)C(=O)N[C@@H](CCCNC(=N)N)C(=O)NCC(=O)N[C@@H](CC(=O)O)C(=O)NCCCC[C@@H]1NC(=O)[C@H](Cc2ccccc2)NC(=O)[C@H](CC(=O)O)NC(=O)CNC(=O)[C@H](CCCN=C(N)N)NC1=O
inhibition of growth at 400 µM [2]: 28.8%
inhibition of growth at 40 µM [3]: 28.1%
inhibition of growth at 4 µM [4]: 23.9%
inhibition of growth at 0.4 µM [5]: 15.4%
inhibition of growth at 0.04 µM [6]: 14.4%
inhibition of growth at 0.004 µM [7]: 19.5%
inhibition of growth at 0.0004 µM [8]: 13.1%
inhibition of growth at 400 µM [9]: 30.2%
inhibition of growth at 40 µM [10]: 23.8%
inhibition of growth at 4 µM [11]: 22.6%
inhibition of growth at 0.4 µM [12]: 17.6%
inhibition of growth at 0.04 µM [13]: 17.5%
inhibition of growth at 0.004 µM [14]: 13.4%
inhibition of growth at 0.0004 µM [15]: 18.3%

IC50 [1]: 8.9 µM
Compound: [N-]=[N+]=NCCCC(=O)N[C@@H](CCCNC(=N)N)C(=O)NCC(=O)N[C@@H](CC(=O)O)C(=O)N[C@@H](CCCNC(=N)N)C(=O)NCC(=O)N[C@@H](CC(=O)NCCCC[C@@H]1NC(=O)[C@H](Cc2ccccc2)NC(=O)[C@H](CC(=O)O)NC(=O)CNC(=O)[C@H](CCCN=C(N)N)NC1=O)C(=O)NCCCC[C@@H]1NC(=O)[C@H](Cc2ccccc2)NC(=O)[C@H](CC(=O)O)NC(=O)CNC(=O)[C@H](CCCN=C(N)N)NC1=O

IC50 [1]: 25.1 µM
Compound: [N-]=[N+]=NCCCC(=O)N[C@@H](CCCNC(=N)N)C(=O)NCC(=O)N[C@@H](CC(=O)O)C(=O)N[C@@H](CCCNC(=N)N)C(=O)NCC(=O)N[C@@H](CC(=O)O)C(=O)NCCCC[C@@H]1NC(=O)[C@H](Cc2ccccc2)NC(=O)[C@H](CC(=O)O)NC(=O)CNC(=O)[C@H](CCCN=C(N)N)NC1=O

IC50 [1]: 4.2 µM
Activity [18]: Active
Compound: [N-]=[N+]=NCCCC(=O)N[C@@H](CCCNC(=N)N)C(=O)NCC(=O)N[C@@H](CC(=O)O)C(=O)N[C@@H](CCCNC(=N)N)C(=O)NCC(=O)N[C@@H](CC(=O)N[C@H]1CSSC[C@@H](C(=O)O)NC(=O)[C@H](CC(=O)O)NC(=O)CNC(=O)[C@H](CCCNC(=N)N)NC(=O)[C@H](CC(=O)O)NC(=O)CNC(=O)[C@H](CCCNC(=N)N)NC1=O)C(=O)NCCCC[C@@H]1NC(=O)[C@H](Cc2ccccc2)NC(=O)[C@H](CC(=O)O)NC(=O)CNC(=O)[C@H](CCCN=C(N)N)NC1=O
